ChEMBL document CHEMBL4477255, “Charting the chemical space around the (iso)indoline scaffold, a comprehensive approach towards multitarget directed ligands” (Bioorg Med Chem Lett, 2016)

What was measured:
Format in all cases: cell-based
D(2) dopamine receptor [1] = target: T1, D(2) dopamine receptor (Homo sapiens, UniProt P14416); experiment: Displacement of [3H]raclopride from human recombinant dopamine D2 long receptor expressed in CHO-K1 cells at 1 uM incubated for 120 mins by scintillation counting analysis
T1 sequence (P14416 whole entry): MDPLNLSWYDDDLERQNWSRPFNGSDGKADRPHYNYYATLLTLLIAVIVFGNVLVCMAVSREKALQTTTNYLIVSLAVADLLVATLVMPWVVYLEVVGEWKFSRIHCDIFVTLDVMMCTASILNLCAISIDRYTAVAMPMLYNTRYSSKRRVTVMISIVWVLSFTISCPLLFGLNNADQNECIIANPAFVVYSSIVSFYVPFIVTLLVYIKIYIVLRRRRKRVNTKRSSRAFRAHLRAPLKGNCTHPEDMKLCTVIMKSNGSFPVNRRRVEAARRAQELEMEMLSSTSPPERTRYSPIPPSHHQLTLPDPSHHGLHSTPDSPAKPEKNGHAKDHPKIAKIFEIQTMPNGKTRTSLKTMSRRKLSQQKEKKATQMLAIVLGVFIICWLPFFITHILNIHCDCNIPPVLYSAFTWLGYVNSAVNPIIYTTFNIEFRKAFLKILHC

Histamine H3 receptor = Histamine H3 receptor (Homo sapiens, UniProt Q9Y5N1); experiment: Displacement of N-alpha-[methyl-3H]methylhistamine dihydrochloride from human recombinant histamine H3 receptor expressed in CHO-K1 cells at 1 uM incubated for 30 mins by liquid scintillation counting analysis
Histamine H3 receptor, sequence (Q9Y5N1 whole entry): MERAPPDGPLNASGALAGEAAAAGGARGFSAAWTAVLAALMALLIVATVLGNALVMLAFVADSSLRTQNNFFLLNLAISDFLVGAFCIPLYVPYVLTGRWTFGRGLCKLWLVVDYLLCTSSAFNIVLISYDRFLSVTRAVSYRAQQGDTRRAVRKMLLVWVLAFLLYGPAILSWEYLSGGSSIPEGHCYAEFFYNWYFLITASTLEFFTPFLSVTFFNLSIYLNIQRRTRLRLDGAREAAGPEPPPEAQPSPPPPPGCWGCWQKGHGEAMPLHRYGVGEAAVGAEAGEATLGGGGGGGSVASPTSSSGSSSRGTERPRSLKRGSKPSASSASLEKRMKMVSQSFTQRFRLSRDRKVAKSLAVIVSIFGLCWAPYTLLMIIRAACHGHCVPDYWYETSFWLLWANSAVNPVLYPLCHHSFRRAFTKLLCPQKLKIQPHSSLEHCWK

D(3) dopamine receptor [2] = target: T2, D(3) dopamine receptor (Homo sapiens, UniProt P35462); experiment: Displacement of [3H]raclopride from human recombinant dopamine D3 receptor expressed in CHO-K1 cells at 1 uM incubated for 120 mins by liquid scintillation counting analysis
T2 sequence (P35462 whole entry): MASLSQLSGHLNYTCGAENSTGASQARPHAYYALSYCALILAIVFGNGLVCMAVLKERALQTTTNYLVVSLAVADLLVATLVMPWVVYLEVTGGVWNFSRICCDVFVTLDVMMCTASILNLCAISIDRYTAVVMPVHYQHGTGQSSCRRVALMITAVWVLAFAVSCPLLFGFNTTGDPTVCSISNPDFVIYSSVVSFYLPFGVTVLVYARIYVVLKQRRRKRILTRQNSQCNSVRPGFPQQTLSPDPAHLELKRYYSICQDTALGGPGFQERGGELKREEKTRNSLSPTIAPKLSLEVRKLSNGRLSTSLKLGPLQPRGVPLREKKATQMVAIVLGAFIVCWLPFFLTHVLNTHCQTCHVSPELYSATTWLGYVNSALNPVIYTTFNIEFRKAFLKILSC

D(3) dopamine receptor [3] = target: T2, D(3) dopamine receptor; experiment: Displacement of [3H]raclopride from human recombinant dopamine D3 receptor expressed in CHO-K1 cells incubated for 120 mins by liquid scintillation counting analysis
[4] = target: T3, 5-hydroxytryptamine receptor 6 (Homo sapiens, UniProt P50406); experiment: Displacement of [3H]LSD from human recombinant 5-HT6 receptor expressed in CHO-K1 cells incubated for 3 hrs by scintillation counting analysis
T3 sequence (P50406 whole entry): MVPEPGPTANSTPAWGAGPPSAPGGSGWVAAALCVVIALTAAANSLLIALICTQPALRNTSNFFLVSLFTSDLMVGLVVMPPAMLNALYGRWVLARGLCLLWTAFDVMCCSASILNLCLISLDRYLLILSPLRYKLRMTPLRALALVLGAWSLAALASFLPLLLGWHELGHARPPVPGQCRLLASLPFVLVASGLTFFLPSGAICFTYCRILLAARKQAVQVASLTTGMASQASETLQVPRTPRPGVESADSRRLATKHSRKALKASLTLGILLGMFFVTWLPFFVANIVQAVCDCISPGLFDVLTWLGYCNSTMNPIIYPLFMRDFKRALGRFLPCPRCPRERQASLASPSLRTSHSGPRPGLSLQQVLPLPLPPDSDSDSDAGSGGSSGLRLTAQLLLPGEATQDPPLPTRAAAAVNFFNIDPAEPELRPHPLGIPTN

[5] = target: T3, 5-hydroxytryptamine receptor 6; experiment: Displacement of [3H]LSD from human recombinant 5-HT6 receptor expressed in CHO-K1 cells at 1 uM incubated for 3 hrs by scintillation counting analysis
Homo sapiens = species on record: Homo sapiens; experiment: Selectivity index, ratio of Ki for human recombinant dopamine D3 receptor expressed in CHO-K1 cells to Ki for dopamine D2 long receptor expressed in CHO-K1 cells
D(2) dopamine receptor [6] = target: T1, D(2) dopamine receptor; experiment: Displacement of [3H]raclopride from human recombinant dopamine D2 long receptor expressed in CHO-K1 cells incubated for 120 mins by scintillation counting analysis

SMILES | inhibition (D(2) dopamine receptor [1]) | inhibition (Histamine H3 receptor) | inhibition (D(3) dopamine receptor [2]) | Ki (D(3) dopamine receptor [3]) | Ki [4] | inhibition [5] | Ratio Ki (Homo sapiens) | Ki (D(2) dopamine receptor [6])
CCCN1CCN(c2ccc3c(c2)CN(S(=O)(=O)c2ccccc2)C3)CC1 | 29% | 38% | 85% | 0.103 µM |  |  |  | 
CCCN1CCC(c2cccc3c2CCN3S(=O)(=O)c2ccccc2)CC1 | 38% | -5% | 56% | 0.383 µM | 1.03 µM | 45% |  | 
CN1CCC(c2ccc3c(c2)N(S(=O)(=O)c2ccccc2)CC3)CC1 | 34% | 3% | 75% | 0.121 µM | 0.025 µM | 93% | < 10 | 
CCN1CCC(c2ccc3c(c2)N(S(=O)(=O)c2ccccc2)CC3)CC1 | 39% | 11% | 86% | 0.095 µM | 0.023 µM | 95% | < 10 | 
CCCN1CCC(c2ccc3c(c2)CN(S(=O)(=O)c2ccccc2)C3)CC1 | 16% | 27% | 48% | 0.712 µM |  | 26% |  | 
O=S(=O)(c1ccccc1)N1Cc2ccc(C3CCN(C4CCC4)CC3)cc2C1 | 25% | 28% | 24% |  |  | -10% |  | 
CCCN1CCN(c2ccc3c(c2)CCN3S(=O)(=O)c2ccccc2)CC1 | 59% | 39% | 98% | 0.024 µM |  | 38% |  | 0.245 µM
CCCN1CCN(c2cccc3c2CN(S(=O)(=O)c2ccccc2)C3)CC1 | 64% | 12% | 97% | 0.027 µM | 0.0046 µM | 98% |  | 0.18 µM
O=S(=O)(c1ccccc1)N1CCc2ccc(C3CCN(C4CCC4)CC3)cc21 | 29% | 1% | 59% | 0.362 µM | 0.527 µM | 62% | < 10 | 
O=S(=O)(c1ccccc1)N1CCc2ccc(N3CCNCC3)cc21 | 32% | 4% | 58% | 0.33 µM | 0.012 µM | 95% | < 10 | 
CN1CCN(c2ccc3c(c2)CCN3S(=O)(=O)c2ccccc2)CC1 | 18% | 35% | 85% | 0.108 µM | 0.44 µM | 84% |  | 
O=S(=O)(c1ccccc1)N1CCc2cc(C3CCNCC3)ccc21 | 13% | 2% | 20% |  | 0.175 µM | 74% |  | 
O=S(=O)(c1ccccc1)N1CCc2cc(N3CCN(C4CCC4)CC3)ccc21 | 24% | 36% | 68% | 0.208 µM |  | 28% |  | 
CN1CCN(c2cccc3c2CN(S(=O)(=O)c2ccccc2)C3)CC1 | 43% | 19% | 85% | 0.16 µM | 0.0026 µM | 100% |  | 
CCN1CCN(c2cccc3c2CN(S(=O)(=O)c2ccccc2)C3)CC1 | 55% | 17% | 92% | 0.073 µM | 0.028 µM | 98% |  | 0.31 µM
CCCN1CCN(c2ccc3c(c2)N(S(=O)(=O)c2ccccc2)CC3)CC1 | 80% | 16% | 99% | 0.0057 µM | 0.125 µM | 82% | < 10 | 0.095 µM
O=S(=O)(c1ccccc1)N1Cc2ccc(N3CCNCC3)cc2C1 | 14% | 7% | 37% |  | 0.289 µM | 46% |  | 

SMILES | inhibition (D(2) dopamine receptor [1]) | inhibition (Histamine H3 receptor) | inhibition (D(3) dopamine receptor [2]) | Ki (D(3) dopamine receptor [3]) | Ki [4] | inhibition [5] | Ratio Ki (Homo sapiens) | Ki (D(2) dopamine receptor [6])
CN1CCN(c2ccc3c(c2)N(S(=O)(=O)c2ccccc2)CC3)CC1 | 52% | -7% | 72% | 0.068 µM | 0.025 µM | 92% | < 10 | 0.458 µM
O=S(=O)(c1ccccc1)N1CCc2c(C3CCNCC3)cccc21 | 10% | -5% | 6% |  | 0.013 µM | 83% |  | 
CN1CCN(c2ccc3c(c2)CN(S(=O)(=O)c2ccccc2)C3)CC1 | 11% | 21% | 41% |  |  | 29% |  | 
O=S(=O)(c1ccccc1)N1CCc2cc(N3CCNCC3)ccc21 | 18% | 4% | 75% | 0.133 µM | 0.02 µM | 90% |  | 
O=S(=O)(c1ccccc1)N1Cc2cccc(N3CCNCC3)c2C1 | 29% | 11% | 61% | 0.505 µM | 0.0019 µM | 98% |  | 
O=S(=O)(c1ccccc1)N1Cc2cccc(C3CCN(C4CCC4)CC3)c2C1 | 49% | 13% | -5% |  | 0.042 µM | 91% |  | 1.83 µM
O=S(=O)(c1ccccc1)N1CCc2cc(C3CCN(C4CCC4)CC3)ccc21 | 22% | 11% | 48% | 1.67 µM |  | -9% |  | 
O=S(=O)(c1ccccc1)N1Cc2ccc(C3CCNCC3)cc2C1 | 9% | 3% | 3% |  | 0.254 µM | 54% |  | 
CCCN1CCC(c2ccc3c(c2)CCN3S(=O)(=O)c2ccccc2)CC1 | 35% | 22% | 79% | 0.227 µM |  | 39% |  | 
CCCN1CCC(c2cccc3c2CN(S(=O)(=O)c2ccccc2)C3)CC1 | 40% | 4% | 55% | 0.212 µM | 0.021 µM | 92% |  | 
O=S(=O)(c1ccccc1)N1CCc2ccc(C3CCNCC3)cc21 | 27% | -6% | 49% | 0.517 µM | 0.0027 µM | 91% | < 10 | 
CN1CCC(c2cccc3c2CCN3S(=O)(=O)c2ccccc2)CC1 | 35% | 10% | 13% |  | 0.045 µM | 87% |  | 
O=S(=O)(c1ccccc1)N1CCc2c(N3CCNCC3)cccc21 | 22% | 3% | 40% |  | 0.118 µM | 97% |  | 
O=S(=O)(c1ccccc1)N1Cc2cccc(N3CCN(C4CCC4)CC3)c2C1 | 47% | 16% | 72% | 0.525 µM | 0.0048 µM | 98% |  | 1.59 µM
CN1CCC(c2ccc3c(c2)CN(S(=O)(=O)c2ccccc2)C3)CC1 | 19% | 41% | 34% |  | 0.556 µM | 56% |  | 
CCN1CCC(c2cccc3c2CN(S(=O)(=O)c2ccccc2)C3)CC1 | 27% | 3% | 53% | 0.562 µM | 0.0023 µM | 98% |  | 
